Measured values as given in paper PMC4516231 (Journal of pharmaceutical sciences, 2012).
Converted amounts (≈) assume the structure as drawn.

Assays:
[1] = Aqueous solubility in distilled–deionized water; type: physicochemical; conditions: for Reduction in solubility: DDW, relative to CDF; for Reduction in solubility / Solubility in DDW: 37°C; for Solubility in DDW: distilled–deionized water, 24 h
Tissue = type: in vitro ADME, rabbit; conditions: relative to parent CDF

Reduction in solubility [1]	Solubility in DDW [1]	solubility at 24 h ([1]; distilled-deionized water)	Fold Increase in retina–choroid partition coefficient (Tissue)	Structure (SMILES)
about 56 fold	1.27 ± 0.48 mg/mL (≈ 3.68 mM)			CCCCCCOP1(=O)COC(Cn2ccc(N)nc2=O)CO1 (stereo not drawn) [C6-cCDF, C6-cyclic Cidofovir]
~74 fold	0.95 ± 0.37 mg/mL (≈ 2.21 mM)			CCCCCCCCCCCCOP1(=O)CO[C@@H](Cn2ccc(N)nc2=O)CO1 (stereo partly drawn) [C12-cCDF, C12-cyclic Cidofovir]
		72.4 ± 3.33 mg/mL (≈ 259 mM)	1 fold	Nc1ccn(C[C@@H](CO)OCP(=O)(O)O)c(=O)n1 [CDF, Cidofovir, reference compound]
